{"source": "patent US8945061B2", "about": "“Otic formulations, methods and devices” (Entrx LLC, priority 2012, dated 2015)", "key": {"[1]": {"tested_on": "22 Candida spp. and 10 Aspergillus spp.", "conditions": "all yeasts and moulds tested; judged from high MICs"}, "fungus and bacteria": {"tested_on": "fungus and bacteria", "conditions": "published literature; cited from earlier work"}, "C. glabrata": {"tested_on": "C. glabrata", "conditions": "n=5 strains, 48 hours, prominent growth reduction endpoint"}, "C. lusitaniae": {"tested_on": "C. lusitaniae", "conditions": "n=1 strain, 48 hours, prominent growth reduction endpoint"}, "Staphlococcus aureus": {"tested_on": "Staphlococcus aureus", "conditions": "cited from earlier work"}, "Pseudomonas": {"tested_on": "Pseudomonas", "conditions": "cited from earlier work"}, "A. fumigatus": {"tested_on": "A. fumigatus", "conditions": "n=5 strains, 48 hours, prominent growth reduction endpoint"}, "C. krusei": {"tested_on": "C. krusei", "conditions": "n=5 strains, 48 hours, prominent growth reduction endpoint"}, "C. albicans": {"tested_on": "C. albicans", "conditions": "n=5 strains, 48 hours, prominent growth reduction endpoint"}, "A. niger": {"tested_on": "A. niger", "conditions": "n=5 strains, 48 hours, prominent growth reduction endpoint"}, "C. tropicalis": {"tested_on": "C. tropicalis", "conditions": "n=5 strains, 48 hours, prominent growth reduction endpoint"}, "C. parapsilosis": {"tested_on": "C. parapsilosis", "conditions": "n=1 strain, 48 hours, prominent growth reduction endpoint"}}, "data": [{"smiles": "O=C(O)c1cn(C2CC2)c2cc(N3CCNCC3)c(F)cc2c1=O", "note": "[CIPRO, ciprofloxacin]", "values": [{"measurement": "antifungal activity on its own", "setting": "[1]", "value": "no antifungal activity on its own"}]}, {"smiles": "C[C@@H]1[C@H](O)[C@@H](C)/C=C/C=C/CC/C=C/C=C/C=C/C=C/C(O[C@H]2O[C@H](C)[C@@H](O)[C@H](N)[C@@H]2O)CC2O[C@](O)(CC(O)C(O)CCC(O)CC(O)CC(O)CC(=O)O[C@H]1C)CC(O)C2C(=O)O", "note": "(some centres unmarked) [Nystatin, nystatin]", "values": [{"measurement": "Spectrum of Efficacy", "setting": "fungus and bacteria", "value": "primarily fungistatic at low concentrations against biphasic"}]}, {"smiles": "Clc1ccccc1C(c1ccccc1)(c1ccccc1)n1ccnc1", "note": "[CTZ, clotrimazole]", "values": [{"measurement": "Spectrum of Efficacy", "setting": "fungus and bacteria", "value": "Aspergillus fiavus, Aspergilius fumigatus, Blastomyces"}, {"measurement": "MIC range", "setting": "C. glabrata", "value": "0.25 to 1", "unit": "µg/mL"}, {"measurement": "MIC range", "setting": "C. lusitaniae", "value": "≦0.015 mcg/ml"}, {"measurement": "antibacterial activity", "setting": "Staphlococcus aureus", "value": "demonstrated antibacterial activity"}, {"measurement": "antibacterial activity", "setting": "Pseudomonas", "value": "demonstrated antibacterial activity"}, {"measurement": "MIC range", "setting": "A. fumigatus", "value": "0.25 to 0.5", "unit": "µg/mL"}, {"measurement": "MIC range", "setting": "C. krusei", "value": "0.06 to 0.125", "unit": "µg/mL"}, {"measurement": "MIC range", "setting": "C. albicans", "value": "≦0.015 mcg/ml"}, {"measurement": "MIC range", "setting": "A. niger", "value": "0.5 to 1", "unit": "µg/mL"}, {"measurement": "MIC range", "setting": "C. tropicalis", "value": "0.06 to 2", "unit": "µg/mL"}, {"measurement": "MIC range", "setting": "C. parapsilosis", "value": 0.06, "unit": "µg/mL"}]}, {"smiles": "Cc1cccc(N(C)C(=S)Oc2ccc3ccccc3c2)c1", "note": "[tolnaftate]", "values": [{"measurement": "Spectrum of Efficacy", "setting": "fungus and bacteria", "value": "Fungistatic for dermatophytes and Tinea Versicoior"}]}]}
